This assay addresses bacterial protein synthesis (S30 extract from quinolone-succeptable Streptococcus pneumoniae ATCC 46919). Briefly: Translation assay, firefly luciferase reporter system with S30 Streptococcus pneumoniae extract. It is filed as biochemical. Particulars: luciferase mRNA, read-out: IC50, concentration causing 50% inhibition of bacterial protein synthesis. As to the method: Bacterial protein synthesis inhibitory activity of representative compounds of this invention having formula (I) and the commercially-available antibacterials in TABLE 2 was determined by translation assays using the firefly luciferase reporter system described by Murray et al., (2001), “Staphylococcus aureus Cell Extract Transcription-Translation Assay: Firefly Luciferase Reporter System for Evaluating Protein Translation Inhibitors,” Antimicrob. Agents Chemother. 45(6): 1900-1904, but replacing the Staphylococcus aureus S30 extract described therein with S30 Streptococcus pneumoniae extract from quinolone-succeptable Streptococcus pneumoniae ATCC 46919, and replacing plasmid coding for the luciferase gene with mRNA (encoding produced by in vitro transcription from the plasmid pAS10rbs3) which encoded the luciferase gene with an upstream Streptococcus pneumoniae promoter and Shine-Dalgarno site.

Each structure is given as a SMILES string.

As to `CC(=O)NC[C@H]1CN(c2ccc(N3CCOCC3)c(F)c2)C(=O)O1` [Linezolid], the IC50 was roughly 3000 nM.

Source of the values: patent US7737159B2, “Antibacterial compounds” (Abbott Laboratories, priority 2004, dated 2010).
